Reference: publication PMC5862576, “Mitochondrial fission as a driver of stemness in tumor cells: mDIVI1 inhibits mitochondrial function, cell migration and cancer stem cell (CSC) signalling” (Oncotarget, 2018)

Columns and labels:
A375 melanoma = experiment: Tumorsphere formation assay, A375; assay type: cell-based; conditions: five days
Experimental: (§1) A single cell suspension was prepared using enzymatic (1× Trypsin-EDTA, T3924, Sigma Aldrich), and manual disaggregation (25 gauge needle). Cells were plated at a density of 5000 cells/well in tumorsphere media (DMEM-F12/B27/EGF (20ng/ml)/Pen-Strep) in non-adherent conditions, in 6-well plates coated with (2-hydroxyethylmethacrylate) (poly-HEMA, P3932, Sigma) in the presence of mDIVI1 or vehicle. After 5 days of culture in a humidified incubator at 37° C, tumorspheres bigger than 50 μm were counted using an eye piece graticule.

A549 lung cancer = experiment: Tumorsphere formation assay, A549; assay type: cell-based; conditions: five days
Experimental: as §1

MCF7 cells [1] = experiment: Extracellular flux analysis (ECAR and OCR, Seahorse XF96); assay type: cell-based, Human; conditions: 48 hours
E-cadherin = experiment: Western blotting; assay type: cell-based, Human; conditions: MCF7 cells
Experimental: At the end of the treatment, cells in suspension were spun down and lysed and attached cells were directly lysed in RIPA lysis buffer (R0278, Sigma) containing proteinase inhibitors (05 892 970 001, Roche) and kept at 4° C for 20 minutes with rotation. Lysates were cleared by centrifugation for 10 minutes at 10,000 xg and supernatants were collected. […] Bound antibodies were detected using a horseradish peroxidase-conjugated secondary antibody (ab6789 and ab6721, Abcam) and signal was obtained using Supersignal West Pico chemiluminiscent substrate (34087, ThermoScientific). Pictures were taken in a ChemiDoc XRS with Image Lab Software (BioRad).

Hedgehog signalling = experiment: Luciferase reporter assay MCF7-GFP-GLI(luc); assay type: cell-based, Human; conditions: 50 µM, 2 and 5 days
Experimental: The Cignal Lenti reporter assay (luc) was used to monitor the activity of several signalling pathways in MCF7-GFP cells as explained previously. Luciferase Assay System (E1501, Promega) was performed according to manufacturer’s instructions. 1 × 10^4 MCF7 were seeded in black-walled 96 well plates. When cells were attached, drug treatments were added for 18, 48 hours and 5 days. After treatment, Luciferase Assay was performed according to manufacturer’s instructions and light signal was acquired in the Xenogen VivoVision IVIS Lumina. Results were normalized by SRB staining of cells grown in 96-well plates in parallel.
SRB (S9012, Sigma) measures total biomass by staining cellular proteins. After treatment, cells were fixed in 10% tricloroacetic acid (T9159, Sigma) for 1 hour at 4° C, stained with SRB (S9012, Sigma) for 15 minutes, and washed 3 times with 1% acetic acid (27225, Sigma). The incorporated die was solubilized with 10 mM Tris Base, pH 8.8 (T1503, Sigma). Absorbance was spectrophotometrically measured at 562 nm in a FluoStar Omega plate reader (BMG Labtech). Background measurements were subtracted from all values.

MCF7 cells [2] = experiment: Mitochondrial superoxide (MitoSOX, flow cytometry); assay type: cell-based, Human; conditions: both concentrations; 24 hour, 2 and 5 days; vs vehicle
Experimental: For both assays, 2 × 10^5 MCF7 cells were seeded in 35 mm plates. When cells were attached, either vehicle or mDIVI1 were added to the cells for 24, 48 hours or 5 days in triplicate. Reactive oxygen species (ROS) production was measured using CM-H2DCFDA (C6827, Invitrogen). Briefly, cells were incubated for 20 minutes at 37° C with 1 µM CM-H2DCFDA diluted in PBS and then placed in complete media for 20 minutes at 37° C in the dark, to render the dye fluorescent, according to the manufacturer. Mitochondrial superoxide was measured using MitoSOX Red Mitochondrial Superoxide Indicator (M36008, ThermoFisher Scientific). Briefly, cells were incubated for 10 minutes at 37° C in the dark with 5 µM MitoSOX diluted in PBS, according to the manufacturer. ROS signal and MitoSOX signal was quantified as mean fluorescent intensity of the viable cell population in a Fortessa flow cytometer (BD Bioscience). Results were analysed using FlowJo software.

MCF7 cells [3] = experiment: Mitochondrial staining (MitoTracker Deep Red, microscopy); assay type: cell-based, Human; conditions: 10 µM, 2 days or 5 days
Experimental: One hundred thousand MCF7 cells were seeded onto coverslips in 12-well plates. When cells were attached, mDIVI1 and vehicle treatments were performed in triplicate. After 2 days and 5 days, mitochondria were labeled by incubating cells for 15 min at 37° C with 25 nM of MitoTracker DeepRed (M22426, Invitrogen) diluted in PBS ([…], Sigma). Then, cells were washed with PBS, fixed in 2% paraformaldehyde (28908, Thermo Scientific) in PBS for 30 minutes at room temperature and mounted with ProLong® Gold Antifade Mountant reagent with DAPI (P36935, Invitrogen, Inc.). Immunofluorescence pictures were taken in a Leica gated Stimulated Emission Depletion Microscopy (gSTED) with additional confocal and multi-photon illumination (room rg106).

COc1cc(-n2c(=S)[nH]c3ccccc3c2=O)c(Cl)cc1Cl [mDIVI1, 3-(2,4-Dichloro-5-methoxyphenyl) 2,3-dihydro 2-thioxo-4(1H) quinazolinone]
decrease of A375 tumorsphere forming capacity (A375 melanoma; 10 µM): over 35%
decrease of A375 tumorsphere forming capacity (A375 melanoma; 50 µM): over 90%
decrease of A549 tumorsphere forming capacity (A549 lung cancer; 10 µM): > 15%
decrease of A549 tumorsphere forming capacity (A549 lung cancer; 50 µM): > 80%
basal glycolysis (ECAR) (MCF7 cells [1]): did not have a significant effect
oxygen consumption linked to ATP production (MCF7 cells [1]): significantly reduced
oxygen consumption linked to basal respiration (MCF7 cells [1]): significantly reduced
spare respiratory capacity (MCF7 cells [1]; all mDIVI1 concentrations): slightly increased
OCR/ECAR ratio (MCF7 cells [1]; vs vehicle): decreased dose-dependently
oxygen consumption linked to maximal respiration (MCF7 cells [1]; to a lesser extent, at higher concentrations): significantly reduced
glycolytic capacity (ECAR) (MCF7 cells [1]; ≥10 µM): reduced
glycolytic reserve (ECAR) (MCF7 cells [1]; ≥10 µM): reduced
E-cadherin expression (immunoblot) (E-cadherin): reduction in the expression
Hedgehog/GLI pathway luciferase activity (Hedgehog signalling): strikingly caused the inhibition
mitochondrial superoxide production (MitoSOX) (MCF7 cells [2]): significantly increased
mitochondrial morphology (MCF7 cells [3]): more interconnected mitochondria
